Data published in patent publication EP3783012A1, “AN ANTIMICROBIAL PEPTIDE” (priority 2019, dated 2021).
Where no end group is shown, it is not given here.

Columns and labels:
human THP-1 macrophages = experiment: Ex-vivo viability assay (MTT); assay type: cell-based
Experimental: Ex-vivo viability assay: Cellular viability was assessed in human THP-1 macrophages by a colorimetric assay that makes use of thiazolyl blue tetrazolium bromide (MTT, Sigma). Cells were grown in Roswell Park Memorial Institute (RPMI) medium supplemented with 10% of heat inactivated fetal bovine serum (FBS), 1% L-glutamine and 1% penicillin-streptomycin. At 90% confluence, cells were centrifuged and diluted to a 1:5 ratio with complete RPMI. The monocytes were differentiated into macrophages using […] phorbol 12-myristate 13-acetate (PMA) before being seeded in a 96 well plate at a density of 1.0 x 10^4 cells/well and incubated in the presence of 5% CO2 for 72 hours at 37°C. Following this, cells were treated with increasing concentrations (0.05, 0.5, 5, 50, 500 µg/mL) of Pep_V2QV5D, magainin 2 or colistin before re-incubation for a further 24 hours. Post-incubation, 10 µL of MTT was added to each well at a final concentration of 500 µg/mL and incubated at 5% CO2 for 2 hours at 37°C. Formazan crystals were dissolved by the addition of 100 µL 100% DMSO and gentle shaking for 5 minutes at room temperature. The absorbance was measured at 570nm in a microplate spectrophotometer (Synergy H1, Biotek). Maximum toxicity was determined by cells incubated with 100% DMSO. Cell viability was calculated as a per cent of a control treated with PBNS. Three technical replicates were performed each day on three independent days.

colRAB [1] = experiment: Synergy study, Fractional inhibitory concentration (FIC) by CE drop plate method; assay type: cell-based, A. baumannii; settings: Pep_V2QV5D combined with colistin
Experimental: Synergy studies were conducted using the above described CE drop plate method, however two peptides were mixed in a series of concentration combinations using PBNS as a diluent before bacterial inoculation and subsequent incubation. The highest concentration combination tested was the individual CE concentrations of Pep_V2QV5D and colistin, which were 12 µg/mL and 8 µg/mL, respectively. The amounts of each compound were then reduced sequentially in various proportions until the lowest possible active combination was identified.
Traditionally, the FIC in a drug mixture is defined as the sum of the FICs (ΣFIC) and is calculated with the equation; ΣFIC = FICA + FICB = (CEcombA/CEA) + (CEcombB/CEB) [formula]
Where CEA and CEB are the killing concentrations of individual peptides A and B, respectively, and CEcombA and CEcombB are the killing concentrations of the peptides in combination. In this work we used a similar concept and analysed the ratios of FICA and FICB. 'Synergy' was interpreted as a FIC ≤ 0.5, 'antagonism' as FIC > 4.0 and 'no interaction' as FIC > 0.5-4.0 [40].

colRAB [2] = experiment: Complete Elimination (CE) Drop Plate method; assay type: cell-based, A. baumannii; settings: 90 minutes challenge in PBNS, tested alone
Experimental: (§1) Complete Elimination (CE) Drop Plate method: The CE method was primarily used as the antimicrobial susceptibility testing method for peptides used in this study. This was performed to avoid any interference of cations within the test media or buffer on the bioactivity of the peptides. This assay was performed by the method outlined by Chen et al. (2003) with minor modifications. Briefly, bacteria were grown overnight and sub-cultured to mid exponential phase. PBNS was used to make serial dilutions of bacteria in a 96 well plate. The appropriate volume of peptide was added to the wells at a final volume of 100 µL. As a control, PBNS was added to the bacterial suspensions without any peptide. The microtiter plate was incubated for 90 minutes at 37°C. Post challenge, 10 µL from each well was spotted onto appropriate media, depending on the strain. This was conducted in triplicate. The spots were left to dry, and the plates were incubated inverted. The first concentration to inhibit growth across all bacterial dilutions was determined as the CE concentration. Surviving colonies at sub-CE concentrations were counted after 18 hours incubation at 37°C. The reduction in colony forming units (CFU) was assessed relative to the untreated control and the log reduction induced by peptide treatment was calculated. All antimicrobial activity assays were performed in triplicate and on independent days.

colSAB = experiment: Complete Elimination (CE) Drop Plate method; assay type: cell-based, A. baumannii; settings: 90 minutes challenge in PBNS
Experimental: as §1

A. baumannii = experiment: In vitro resistance study (14 sequential passages at sub-inhibitory concentrations); assay type: cell-based; settings: repeated exposure to sub-inhibitory concentrations
Experimental: In vitro resistance study: This assay was conducted as outlined by Ge et al. 1999 with some modifications. Briefly, the in vitro passage study involved exposing bacteria diluted to […] in PBNS to Pep_V2QV5D at one-half of the previously established bactericidal concentration. After 90 minutes of incubation at 37°C, 10 µL was spotted in triplicate on MHB and incubated again overnight. Post-incubation, surviving colonies were collected, diluted in PBNS and adjusted to […] before repeated treatment with the sub-killing concentration of Pep_V2QV5D. The CE concentration was determined prior to the initiation of the study, after the 4th, 7th, 11th and 14th passages. If the CE concentration after the fourth passage was greater than the original killing concentration, then for passes 5, 6, and 7, the amount of peptide used during the bacterial challenge was increased to one-half of that new CE concentration. This was continued over a 14-day course. Magainin and colistin were used as controls for the in vitro resistance study. This assay was performed in independent duplicates.

[3] = in humans; cited from earlier work

For GIGKFLHSAKKFGKAFVGEIMNS [magainin 2], the decrease in viability (human THP-1 macrophages; 50 µg/mL, 24 hours, MTT) was 22%.

In the case of VRGLAPKKSLWPFGGPFKSPFN [Pep_V2QV5D], the “toxic concentration compared to the concentration required for antimicrobial action (therapeutic index)” value (human THP-1 macrophages) is reported as “over 40 times”.

With colistin the “toxic concentration compared to the concentration required for antimicrobial action (therapeutic index)” value (human THP-1 macrophages) was 6.8 times, the “CE concentration in combination” value (colRAB [1]) was 1 µg/mL and the “Complete Elimination values (CE concentration)” value (shortened to “Complete Elimination values”) (colRAB [2]) was 8 µg/mL. For the same substance, the “Complete Elimination values” value (colRAB [2]; listed as Colistin) was 8 ^(R) µg/mL, the “Complete Elimination values” value (colSAB) was 0.25 µg/mL and the “fold change in the CE concentration over 14 days” value (A. baumannii) was 16 fold.

In the case of vasopressin, the half-life [3] is listed as 10 to 35 min.
